Data from patent US9302014B2, “Cell-penetrating peptides having a central hydrophobic domain” (Medical Research Council, priority 2011, dated 2016).

Assays:
dystrophin exon 23 = test: RT-PCR and quantitative real time PCR of exon skipping in mdx mouse tissues; assay type: in vivo, mdx mice; conditions: diaphragm; single 12.5 mg/kg IV, 2 weeks
Excerpt: (§1) Given the potency of Pip5e-PMO in heart tissue, the aim of altering the sequence of the hydrophobic core (whilst maintaining the 5-aa length) was to identify peptides that might be more efficient at lower doses. These modifications included inversion of the hydrophobic region (Pip6a), substitution of tyrosine by isoleucine (Pip6b), substitution of glutamine in the Pip6a sequence by displacement of the arginine immediately flanking the core in the first arginine-rich flanking region (Pip6e), and a scrambled hydrophobic core sequence (Pip6f). All Pip6 peptide-PMO conjugates were administered to mdx mice as single 12.5 mg/kg intravenous injections via the tail vein and tissues were harvested 2 weeks later and assessed for activity at both RNA and protein levels.
The RTPCR representative images (FIG. 34d) illustrate high exon skipping efficiency in all tissues analysed. This is better shown by Real Time PCR (qRT-PCR) results for the quadriceps, diaphragm and heart (FIG. 34c). The delta 23 transcript is normalised against ‘total dystrophin’ for each muscle group (n=3). […] Western blots (FIG. 34e) were performed on the tissues of each mouse and were quantified against a 50% and 10% C57BL10 control.
Four and a half month old to 5½ month old mdx mice were used in these experiments (n=3). […]

[1] = Serum stability of Pip-PMO conjugates in 100% mouse serum (HPLC, MALDI-TOF); assay type: in vitro ADME; conditions: 37° C.
Method: Serum stability may be measured by adding an aliquot of Pip-PMO (10 nmoles) to 100% mouse serum (100 μL) and incubating at 37° C. for 120 or 240 min. Each reaction is diluted with IM guanidinium-HCl solution (300 μL) and ice-cold acetonitrile (600 μL). Samples are mixed and kept at −20° C., and the precipitated serum proteins separated by centrifugation (13000 rpm, 5 min). After centrifugation, the supernatant is collected, lyophilized and the residue dissolved in water for analysis for peptide degradation by MALDI-TOF mass spectrometry and by reversed phase HPLC. HPLC conditions are: Column, C18 reversed-phase (250×4.6 mm); Solvent A, 0.1% TFA, Solvent B, 90% Acetonitrile, 10% solvent A; Gradient, 10%-50% solvent B in 25 minutes.
Serum stability was measured by adding an aliquot of Pip-PMO (10 nmoles) to 100% mouse serum (100 μL) and incubating at 37° C. for 120 or 240 min. Each reaction was diluted with IM guanidinium-HCl solution (300 μL) and ice-cold acetonitrile (600 μL). Samples were mixed and kept at −20° C., and the precipitated serum proteins separated by centrifugation (13000 rpm, 5 min). After centrifugation, the supernatant was collected, lyophilized and the residue dissolved in water for analysis for peptide degradation by MALDI-TOF mass spectrometry and by reversed phase HPLC. […]

dystrophin [2] = test: Immunohistochemical staining and quantification of dystrophin in mdx mice after single IV injection; assay type: in vivo; conditions: heart; mdx mice, single 12.5 mg/kg IV, 2 weeks; relative to laminin, normalised to C57BL10
Excerpt: as §1
Immunohistochemical staining quantification (FIGS. 34a, b) was performed as previously described [Malerba, A., et al., Chronic systemic therapy with low-dose morpholino oligomers ameliorates the pathology and normalizes locomotor behavior in mdx mice. Mol Ther, 2011. 19(2): p. 345-54; Arechavala-Gomeza, V., et al., Immunohistological intensity measurements as a tool to assess sarcolemma-associated protein expression. Neuropathol Appl Neurobiol, 2010. 36(4): p. 265-74.] and was achieved by taking 4 representative frames of the dystrophin staining and correlating this with laminin staining for each section (n=3) of the quadriceps, diaphragm and heart for each peptide-PMO treatment. Untreated mdx and treated mdx mice were normalised to C57BL10 mice. This method allows comparison of the staining intensity of dystrophin at the sarcolemma relative to laminin for each treatment group. Intensity ratios are normalised to C57BL10 samples and each region of interest at the sarcolemma (120 regions for each treatment group) is plotted on a scatter graph. […]
Transverse sections of tissue samples were cut (8 μm thick) for the examination of dystrophin expression. For dystrophin visualisation and quantification, sections were co-stained with rabbit-anti-dystrophin (Abcam) and rat anti-laminin (Sigma), and detected by goat-anti-rabbit IgG Alexa 594 and goat-anti-rat IgG 488 secondary antibodies respectively (Invitrogen). […] Quantitative immunohistochemistry was performed as previously described [Malerba, A., et al., Chronic systemic therapy with low-dose morpholino oligomers ameliorates the pathology and normalizes locomotor behavior in mdx mice. […] For quantification, 4 representative frames of the dystrophin and correlating laminin were taken for each section (n=3) of the quadriceps, diaphragm and heart for each treatment. […] The minimum and maximum fluorescence intensity for 120 regions were recorded for each treatment. […]

dystrophin [3] = conditions: single 25 mg/kg administration; cited from earlier work

In the case of RXRRBRRXRILFQYRXRBRXRBC [Pip5e-PMO], the “Δ23 exon skipping by qRT-PCR” value (dystrophin exon 23) is reported as “highest exon skipping”, the “stability in 100% mouse serum” value ([1]; 120 min (2 h), HPLC and MALDI-TOF) is reported as “unchanged Pip-PMO conjugate” and the “levels of PMO conjugated to fragments of peptide” value ([1]; 100% mouse serum, 120 minutes) is reported as “very similar to that for (RXRRBR)2XB-PMO”. For the same sequence, the “percent recovery score (% RS), dystrophin immunostaining” value (dystrophin [2]) was 17.32% and the “dystrophin protein restoration in all muscle types, including heart” value (dystrophin [3]) was “high levels”.
